# Results published in patent US12180187B2, “1-phenyl-5-azinylpyrazolyl-3-oxyalkyl acids and their use for controlling unwanted plant growth” (BAYER AKTIENGESELLSCHAFT, priority 2019, dated 2024).
# “And” between values parts separate entries of the source, which are not always exact repeats. Equal values may be shown once.
# Key:
# VIOTR [1] = experiment: Post-emergence action at 320 g/ha against VIOTR; assay type: in vivo, Viola tricolor; conditions: visual rating about 3 weeks after treatment vs untreated controls; for pest or weed control at 320 g/ha: Viola tricolor, 504 h
# Summary of the method: (§1)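 Activity is a visual rating against untreated controls, with 0% like control and 100% dead plants, made about 3 weeks after treatment. Plants grown in sandy loam in the greenhouse received a post-emergence spray at the one-leaf stage of 320 g/ha, formulated as WP or EC with 0.5% additive in 600 l/ha water.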
# ECHCG = experiment: Post-emergence action at 320 g/ha against ECHCG; assay type: in vivo, Echinochloa crus-galli; conditions: dosage 320 g/ha, visual rating about 3 weeks after treatment vs untreated controls (100% = plants died)
# Summary of the method: as §1
# VERPE = experiment: Post-emergence action against VERPE, 1.28 kg/ha; assay type: in vivo, Veronica persica; conditions: dosage 1280 g/ha, visual rating about 3 weeks after treatment vs untreated controls (100% = plants died); for pest or weed control at 1280 g/ha: Veronica persica, 504 h
# Summary of the method: (§2)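 Spray at one-leaf stage with WP/EC + 0.5% additive, 600 L water/ha. Greenhouse, optimum conditions, ~3 wk. Visual % control vs untreated; 0 = no effect, 100 = dead.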
# DIGSA [2] = experiment: Post-emergence action at 320 g/ha against DIGSA; assay type: in vivo, Digitaria sanguinalis; conditions: dosage 320 g/ha, visual rating about 3 weeks after treatment vs untreated controls (100% = plants died); for pest or weed control at 320 g/ha: Digitaria sanguinalis, 504 h
# Summary of the method: as §1
# ALOMY [3] = experiment: Post-emergence action against ALOMY, 320 g/ha; assay type: in vivo, Alopecurus myosuroides; conditions: dosage 320 g/ha, visual rating about 3 weeks after treatment vs untreated controls (100% = plants died)
# Summary of the method: as §1
# POLCO = experiment: Post-emergence action at 320 g/ha against POLCO; assay type: in vivo, Fallopia convolvulus (Polygonum convolvulus); conditions: visual rating about 3 weeks after treatment vs untreated controls; for pest or weed control at 320 g/ha: Fallopia convolvulus, 504 h
# Summary of the method: as §1
# ABUTH = experiment: Pre-emergence action against ABUTH, 1280 g/ha; assay type: in vivo, Abutilon theophrasti; conditions: scored visually after about 3 weeks vs untreated controls (100% = plants have died)
# Summary of the method: (§3)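 Mono- and dicot weed seeds sown in sandy loam were treated on the covering soil surface with WP or EC formulations plus 0.5% additive at 600 L water/ha. Pots stayed in a greenhouse; damage was scored visually after ~3 weeks as percent versus untreated controls (100% = dead).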
# PHBPU = experiment: Post-emergence action at 320 g/ha against PHBPU; assay type: in vivo; conditions: visual rating about 3 weeks after treatment vs untreated controls
# Summary of the method: as §1
# SETVI = experiment: Post-emergence action against SETVI, 1.28 kg/ha; assay type: in vivo, Setaria viridis; conditions: dosage 1280 g/ha, visual rating about 3 weeks after treatment vs untreated controls
# Summary of the method: as §2
# AVEFA = experiment: Pre-emergence action at 320 g/ha against AVEFA; assay type: in vivo; conditions: visual scoring after about 3 weeks vs untreated controls; for pest or weed control at 320 g/ha: Avena fatua, 504 h
# Summary of the method: (§4)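 Weed and crop seeds sown in pots and covered with soil; WP or EC formulations sprayed pre-emergence onto the soil surface at 320 g/ha with 0.5% additive in 600 l/ha water. Kept in greenhouse; after about 3 weeks activity scored visually as % versus untreated controls (100% = plants dead, 0% = as control).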
# AMARE [4] = experiment: Post-emergence action at 320 g/ha against AMARE; assay type: in vivo, Amaranthus retroflexus; conditions: visual rating about 3 weeks after treatment vs untreated controls; for pest or weed control at 320 g/ha: Amaranthus retroflexus, 504 h
# Summary of the method: as §1
# DIGSA [5] = experiment: Pre-emergence action against DIGSA, 1280 g/ha; assay type: in vivo, Digitaria sanguinalis; conditions: visual scoring after about 3 weeks vs untreated controls, 100% = plants have died, 0% = like control plants
# Summary of the method: as §3
# ALOMY [6] = experiment: Pre-emergence action against ALOMY, 1280 g/ha; assay type: in vivo, Alopecurus myosuroides; conditions: visual scoring after about 3 weeks vs untreated controls, 100% = plants have died, 0% = like control plants
# Summary of the method: as §3
# VIOTR [7] = experiment: Pre-emergence action at 320 g/ha against VIOTR; assay type: in vivo, Viola tricolor; conditions: dosage 320 g/ha; for pest or weed control at 320 g/ha: Viola tricolor, 504 h
# Summary of the method: as §4
# LOLRI = experiment: Post-emergence action against LOLRI, 1.28 kg/ha; assay type: in vivo, Lolium rigidum; conditions: dosage 1280 g/ha, visual rating about 3 weeks after treatment vs untreated controls
# Summary of the method: as §2
# AMARE [8] = experiment: Post-emergence action against AMARE, 1.28 kg/ha; assay type: in vivo, Amaranthus retroflexus; conditions: dosage 1280 g/ha, visual rating about 3 weeks after treatment vs untreated controls (100% = plants died)
# Summary of the method: as §2
Structure (SMILES),Post-emergence action against VIOTR in % (VIOTR [1]) [%],Post-emergence action at 320 g/ha against ECHCG in % (ECHCG) [%],Post-emergence action against VERPE (VERPE) [%],Post-emergence action at 320 g/ha against DIGSA in % (DIGSA [2]) [%],Post-emergence action against ALOMY (ALOMY [3]) [%],Post-emergence action against POLCO in % (POLCO) [%],Post-emergence action against PHBPU in % (PHBPU),Post-emergence action against SETVI (SETVI),Pre-emergence action against AVEFA in % (AVEFA) [%],Post-emergence action against AMARE in % (AMARE [4]) [%],Pre-emergence action against DIGSA (DIGSA [5]) [%],Pre-emergence action against ALOMY (ALOMY [6]),Pre-emergence action against VIOTR in % (VIOTR [7]) [%],Post-emergence action against LOLRI (LOLRI) [%],Post-emergence action against AMARE (AMARE [8]),pest or weed control at 320 g/ha (VIOTR [1]) [%],pest or weed control at 1280 g/ha (VERPE) [%],pest or weed control at 320 g/ha (DIGSA [2]) [%],pest or weed control at 320 g/ha (POLCO) [%],pest or weed control at 320 g/ha (AVEFA) [%],also measured
CCOC(=O)COc1nn(-c2ccccc2F)c(-c2ccc(F)nc2)c1C(F)(F)F [VII-010],80,90,90,90,90,80,90%,90%,90,90,100,100%,100,,,,,,,,Pre-emergence action against ABUTH (ABUTH): 100%
COC(=O)C(C)Oc1nn(-c2ccccc2)c(-c2cccnc2)c1Cl (centres unmarked) [VII-032],90,90,100,90,90,80,90%,90%,80,90,90,,100,100,100%,,,,,,
CN(C)S(=O)(=O)NC(=O)COc1nn(-c2ccccc2F)c(-c2ccc(F)nc2)c1Br [Example X-005],80,80,100,90,90,80,80%,90%,100,80,100,100%,100,100,100%,,,,,,
"O=C(O)COc1nn(-c2ccccc2F)c(-c2ccc(F)nc2)c1Br [VII-003, {[4-Bromo-1-(2-fluorophenyl)-5-(6-fluoropyridin-3-yl)-1H-pyrazol-3-yl]oxy}acetic acid]",,90,,,80,,90%,90%,,,100,90%,,100,100%,90,90,90,90,90,pest or weed control at 320 g/ha (AMARE [4]): 90%; pest or weed control at 320 g/ha (VIOTR [7]): 100%
"COC(=O)C(C)Oc1nn(-c2ccccc2)c(-c2ccc(F)nc2)c1Cl (centres unmarked) [VII-023, Methyl 2-{[4-chloro-5-(6-fluoropyridin-3-yl)-1-phenyl-1H-pyrazol-3-yl]oxy}propanoate]",,80,,,90,,90%,,,,90,,,100,,80,100,90,90,90,pest or weed control at 320 g/ha (AMARE [4]): 90%; pest or weed control at 320 g/ha (VIOTR [7]): 100%
"CCOC(=O)COc1nn(-c2ccccc2F)c(-c2ccc(F)nc2)c1Br [VII-012, Ethyl {[4-bromo-1-(2-fluorophenyl)-5-(6-fluoropyridin-3-yl)-1H-pyrazol-3-yl]oxy}acetate]",,90,,,90,,90% and 80%,100% and 90%,,,100,100% and 90%,,100,100% and 90%,90,90,80,90,90,pest or weed control at 320 g/ha (AMARE [4]): 90%; pest or weed control at 320 g/ha (VIOTR [7]): 100%
O=C(O)COc1nn(-c2ccccc2F)c(-c2cncc(F)c2)c1Br [VII-025],90,90,100,100,100,90,90%,90%,80,90,100,100%,100,,90%,,,,,,Pre-emergence action against ABUTH (ABUTH): 90%
"O=C(O)COc1nn(-c2ccccc2F)c(-c2cncnc2)c1Br [VI-007, {[4-Bromo-1-(2-fluorophenyl)-5-(pyrimidin-5-yl)-1H-pyrazol-3-yl]oxy}acetic Acid]",,80,,,,,90%,90%,,,100,90%,,,,90,90,80,80,90,Pre-emergence action against ABUTH (ABUTH): 90%; pest or weed control at 320 g/ha (AMARE [4]): 80%; pest or weed control at 320 g/ha (VIOTR [7]): 100%
